Structures can show the parent of a compound that is named as a salt.

For test [1], the system named is 18C-18D duplex (RNase H substrate of HIV-1 RT). Briefly: RT-induced RNase H cleavage of the 18C-18D duplex (gel assay). The following applies: for hierarchy of inhibition of RT-induced cleavage: 18C-18D duplex, aminoglycosides 2.0 mM, FIG. 2b, 2c. The test is classed as biochemical. An excerpt: The second model oligonucleotide was a 18mer chimeric duplex (18C-18D). 18C-18D mimics a RNase H substrate during plus-strand strong-stop synthesis (FIG. 2a), which occurs following minus-strand DNA synthesis. Fedoroff, O. Y., et. al., B. R. Structural variation among retroviral primer-DNA junctions: Solution structure of the HIV-1 (−)-strand Okazaki fragment r(gcca)d(CTGC)-d(GCAGTGGC), Biochemistry 35,11070-11080 (1996). For the 18C-18D duplex, RT cleaves the RNA portion of the chimeric strand (18C) opposite the DNA strand (18D) at only a single site (FIGS. 2a, b), in marked contrast to the three cleavage sites observed in the 18C-18Rduplex. This unique cleavage site lies between base positions +1 and +2 (counting from the RNA-DNA junction in the 5′ direction on the cleaved chimeric strand). Furfine, E. S. & Reardon, J. E., Human immunodeficiency virus reverse transcriptase ribonuclease H: Specificity of tRNA(Lys3)-primer excision, Biochemistry 30, 7041-7046 (1991); Smith, J. S. & Roth, M. J. Specificity of human immunodeficiency virus-1 reverse transcriptase-associated ribonuclease H in removal of the minus-strand primer tRNA(Lys3), J. Biol. Chem. 267, 15071-15079 (1992). […] As noted above for the 18C-18R duplex, this hierarchy of cleavage inhibition correlates with the relative binding affinities of the three ligands for the 18C-18D duplex.
Recombinant HIV-1 RT p66 was isolated from Escherichia coli JM 109. Pandey, V. N. et al, Role of methionine 184 of human immunodeficiency virus type-1 reverse transcriptase in the polymerase function and fidelity of DNA synthesis, Biochemistry 35, 2168-2179 (1996). The 18C and 18R oligonucleotides were purchased from Dharmacon Research, Inc. (Lafayette, Colo.). The 18D oligonucleotide was obtained from Integrated DNA Technologies, Inc. (Coralville, Iowa). Neomycin trisulfate trihydrate, the free base of tobramycin, paromomycin sulfate, and kanamycin B sulfate were obtained from Fluka, while kanamycin A monosulfate and ribostamycin sulfate dihydrate were obtained from Sigma.
The RNase H activity of RT was assayed in a 10 μl reaction mixture containing 110 mM PIPES (pH 6.0) and 5 mM MgCl2. Ten pmol of either 18C or 18R were ^32P-labeled at the 5′ end using T4 polynucleotide kinase. For the cleavage experiments, different aminoglycosides were mixed with 0.5 μM of target duplex. A small amount of RT, 0.1 μg, was then added to initiate the cleavage reaction. After incubation at 37° C. for 30 min, the reaction was stopped by addition of 3 M urea containing a mixture of bromophenol blue and xylene cyanol. Denaturation of the 18C-18R duplex required the addition of 5 M urea as well as heating at 95° C. for 5 min prior to gel loading. The cleavage products were resolved in a 10% polyacrylamide gel containing 8 M urea. The gels were subsequently analyzed using a phosphoimager (Molecular Dynamics, Inc.).
To determine the nature of the aminoglycoside-induced inhibition of RT-catalyzed RNase H cleavage, the impact of RT concentration on neomycin-induced inhibition was examined. […] In the presence of 1 mM neomycin, increasing the concentrations of RT overcomes the RNase H inhibitory effect of the drug.

Test [2] concerns 18C-18D duplex. Nature of the test: Isothermal titration calorimetry (ITC), 18C-18D duplex. The test is classed as binding, HIV-1. The following applies: for ΔHb (binding enthalpy): 18C-18D duplex, ITC at 25° C. As for the experimental part:
Isothermal calorimetric measurements were performed at 25° C. on a MicroCal VP-ITC (MicroCal, Inc., Northampton, Mass.). In a typical experiment, 5 μl aliquots of 500 μM aminoglycoside were injected from a 250 μl rotating (430 RPM) syringe into an isothermal sample chamber containing 1.31 mL of either a 18C-18R solution that was 10 μM in duplex or a 18C-18D solution that was 15 μM in duplex. Each experiment of this type was accompanied by the corresponding control experiment in which 5 μL aliquots of 500 μM drug were injected into a solution of buffer alone. The duration of each injection was 5 seconds and the delay between injections was 240 seconds. The initial delay prior to the first injection was 60 seconds. Each injection generated a heat burst curve (μcal/sec vs. sec). The area under each curve was determined by integration [using the Origin version 5.0 software (MicroCal, Inc., Northampton, Mass.)] to obtain a measure of the heat associated with that injection. The heat associated with each drug-buffer injection was subtracted from the corresponding heat associated with each drug-duplex injection to yield the heat of drug binding for that injection. The calorimeter was calibrated both electronically and chemically. Pilch, D. S., Kirolos, M. A., Liu, X., Plum, G. E. & Breslauer, K. J. Berenil [1,3-bis-(4′-amidinophenyl)triazene] binding to DNA duplexes and to a RNA duplex: Evidence for both intercalative and minor groove binding properties, Biochemistry 34, 9962-9976 (1995). All duplex solutions were preheated for 5 minutes at 85° C. and then cooled to room temperature prior to their use in the ITC experiments. The buffer solutions for the ITC experiments contained 10 mM PIPES (pH 6.0) and 5 mM MgCl2.
Table 1 summarizes the apparent association constants at 25° C. that were calculated using equations (1)-(3) for neomycin and paromomycin binding to the 18C-18R and 18C-18D duplexes. The drug binding enthalpies (ΔHb) required for extrapolation of the binding constants at Tm to common reference temperature of 25° C. using equation (3) were determined using isothermal titration calorinietry (ITC). […] Each of the heat burst curves in FIG. 4 corresponds to a single drug injection, with the seven injections resulting in a final drug to duplex ratio (rdup) of either 0.83 (when 18C-18D served as the target duplex) or 1.25 (when 18C-18R served as the target duplex). The areas under these heat burst curves were determined by integration to yield the associated injection heats. For each titration, the seven injection heats were similar in magnitude, an observation consistent with all of the injected drug being bound by the host duplex. These injection heats were corrected by subtraction of the corresponding dilution heats derived from the injection of identical amounts of drug into buffer alone. The resulting corrected injection heats then were divided by the total concentration of injected drug and averaged to yield the ΔHb values listed in Table 1.
On the technique in general: In ITC the heat of successive injections is recorded.

`NC[C@@H]1O[C@H](O[C@H]2[C@@H](O)[C@H](O[C@@H]3[C@@H](O)[C@H](N)C[C@H](N)[C@H]3O[C@H]3O[C@H](CO)[C@@H](O)[C@H](O)[C@H]3N)O[C@@H]2CO)[C@H](N)[C@@H](O)[C@@H]1O` [paromomycin, paromomycin sulfate]: in test [1], the “hierarchy of inhibition of RT-induced cleavage” value is recorded as “neomycin>paromomycin>ribostamycin”. For the same compound, the results for the “ΔHb (binding enthalpy)” value in test [2] and in test [2] (listed as Paromomycin) were -3.6 kcal/mol and -3.6 ± 0.1 kcal/mol, respectively.

Neomycin trisulfate trihydrate: the “nature of inhibition of RNase H activity of RT” value in test [1] (1 mM neomycin, increasing RT 0.1-2.7 μg, FIG. 2d) was “competitive”. In addition, the “hierarchy of inhibition of RT-induced cleavage” value in test [1] was “neomycin>paromomycin>ribostamycin”. In addition, the “neomycin required for 50% inhibition of RT-induced cleavage, 18C-18D relative to 18C-18R” value in test [1] (comparison of FIGS. 1c and 2c) was “approximately 420 times”. The “ΔHb (binding enthalpy)” value in test [2] (listed as Neomycin, trisulfate trihydrate) was -6.1 ± 0.1 kcal/mol; in test [2] (trisulfate trihydrate) it was -6.1 kcal/mol. Further, in test [2] (ITC, 18C-18D), the binding stoichiometry result is listed as “three”.

For the origin of these results see US20030069194A1, “Inhibition of viral replication by targeting RNA-DNA complexes” (priority 2001, published 2003).
